Reference: patent publication US20120148604A1, “TRP INHIBITORS AND USES THEREOF” (TRANSPOSAGEN BIOPHARMACEUTICALS, INC., priority 2009, published 2012)
Entries after “also recorded” stand apart in the source; their conditions may differ. Read-outs that look alike come from different tables or passages of the source.

Experiments:
[1] = STZ induced diabetes, von Frey filament mechanical pain threshold; assay type: in vivo, rat; settings: STZ treated diabetic control rats vs non-treated control rats
Procedure: Von Frey Filament Test (Chang model): The effect of compounds on mechanical allodynia can be determined by the von Frey filament test in rats with a tight ligation of the L-5 spinal nerve: a model of painful peripheral neuropathy. The surgical procedure is performed as described by Kim et al., Pain 50: 355-363 (1992). A calibrated series of von Frey filaments are used to assess mechanical allodynia (Chaplan et al., J. Neurosci. Methods 53: 55-63 (1994)). Filaments of increasing stiffness are applied perpendicular to the midplantar surface in the sciatic nerve distribution of the left hindpaw. The filaments are slowly depressed until bending occurred and are then held for 4-6 seconds. Flinching and licking of the paw and paw withdrawal on the ligated side are considered positive responses.
Since many patients with diabetes mellitus also suffer from hyperalgesia-derived neuropathic pain, the Trpc4(−/−) rats were studied for this indication. Groups of control and Trpc4 knockout rats were treated with streptozotocin (STZ) in order to induce diabetes. Rats were defined to be in a diabetic state if hyperglycemia and glucosuria occurred. The mechanical induced von Frey filament method was again used to establish altered pain response. When STZ non-treated control rats were compared to STZ diabetic control rats the pain response to mechanical induction was very drastic. […]

[2] = system: TRPC4; settings: HEK cells, cited from earlier work
[3] = Paclitaxel induced cold allodynia, acetone cold response; assay type: in vivo, rat
Procedure: Cancer patients who are treated with chemotherapy drugs such as paclitaxel often display sensory abnormalities and symptoms of neuropathic pain such as sudden unexplainable pain attacks. In order to study the effects of cation channels on paclitaxel induced pain, Trpc4−/− rats were treated with the anti-cancer drug. Since one of the major symptoms of patients who are treated with paclitaxel is cold allodynia, control and Trpc4−/− rats were exposed to paclitaxel and tested for acetone cold response. Previously control non-paclitaxel treated and paclitaxel treated WT rats were studied for differences in cold allodynia. Based on established cold score calculations the non-treated rats scored an average of 8 while the paclitaxel treated WT rats scored an average of 15. […] When control and Trpc4−/− treated rats were compared the difference in pain sensitivity was dramatic. […] The reversion to nearly wild type cold allodynia score was remarkable in Trpc4 knockout rats.

[4] = system: TRPC4; settings: dominant negative N-term fragment; cited from earlier work

## CN(N=O)C(=O)N[C@H]1C(O)O[C@H](CO)[C@@H](O)[C@@H]1O (mixture of isomers) [STZ, streptozotocin]
[1]
  decrease of threshold for pain: 40%

## C=O [Formalin]
Formalin 1.5% 50 μl sc upper lip
  duration of nociceptive activity (rubbing face and flipping the head): 25 to 30 min
Wild type rats, Formalin 1.5% 50 μl sc
  start of the activity: 10 to 12 s

## Cl.NCCCCCCNS(=O)(=O)c1cccc2c(Cl)cccc12 [W-7, N-(6-Aminohexyl)-5-chloro-1-naphthalenesulfonamide hydrochloride]
[2]; hydrochloride
  effect on TRPC4 current: significantly decreases TRPC4 current; also recorded: inhibited

## Clc1ccc(C(c2ccc(Cl)cc2)n2cc[n+](CC(OCc3ccc(Cl)cc3Cl)c3ccc(Cl)cc3Cl)c2)cc1 (stereo not drawn) [calmidazolium]
[2]
  effect on TRPC4 current: not inhibited
[2]; listed as CMZ
  effect on TRPC4 current: unable to inhibit TRPC4 current

## CC(=O)O[C@H]1C(=O)[C@@]2(C)[C@H]([C@H](OC(=O)c3ccccc3)[C@]3(O)C[C@H](OC(=O)[C@H](O)[C@@H](NC(=O)c4ccccc4)c4ccccc4)C(C)=C1C3(C)C)[C@]1(OC(C)=O)CO[C@@H]1C[C@@H]2O [paclitaxel]
[3]; paclitaxel treated Trpc4 knockout rats
  cold score: 9
[3]; paclitaxel treated WT rats, non-treated rats scored 8
  cold score (average): 15

B1: first ankyrin domain: dominant negative N-term fragment of TRPC4, residues 61-121 (rat and mouse sequence in b219) (protein, UniProt Q9QUQ5 61-121, looked up, fragment)
chain: ININCIDPLGRTALLIAIENENLELIELLLSFNVYVGDALLHAIRKEVVGAVELLLNHKKP
[4]
  suppression of TRPC4 currents: successfully suppress TRPC4 currents
